Assay results from patent US11980616B2, “Treating liver disease by selectively eliminating senescent cells” (Buck Institute for Research on Aging, priority 2014, dated 2024).

What was measured:
[1] = system: senescent foreskin fibroblasts (Sen(IR)HCA2); test: Cell count survival assay, irradiation-induced senescent HCA2; format: cell-based; details: 0, 2.5, 10 μM for 9 days
Description: (§1) Foreskin fibroblast cell lines HCA2 and BJ, lung fibroblast cell line IMR90, and mouse embryonic fibroblasts were seeded in six-well plates and induced to senesce with 10 Gy of ionizing radiation (IR) or a 24 hr treatment with doxorubicin (Doxo). Senescent phenotype was allowed to develop for at least 7 days, at which point a cell count was made to determine the baseline number of cells. Nutlin-3a treatment was then initiated for a period of at least 9 days. Media alone or media with drug as appropriate was refreshed at least every three days. At the end of the assay time period, cells are counted. Each condition was seeded in three plate wells and counted independently. Initial cell count serves as a control to determine the induction of senescence, as compared to the last day count without nutlin treatment. Initial non-senescent cell count serves as a proxy to determine Nutlin-3a toxicity.
(§2) Foreskin fibroblast cell lines HCA2 and BJ, lung fibroblast cell line IMR90, and mouse embryonic fibroblasts were exposed to 10 Gy of ionizing radiation (IR) to induce senescence. […] Percent survival was calculated as [cell count on day 9 of Nutlin-3a treatment/initial cell count on first day of Nutlin-3a treatment].

[2] = system: senescent foreskin fibroblasts (Sen(IR)BJ); test: Cell count survival assay, irradiation-induced senescent BJ; format: cell-based; details: 0, 2.5, 10 μM for 9 days
Description: as §1, §2

[3] = system: non-senescent foreskin fibroblasts (Non Sen HCA2); test: Cell count toxicity assay, non-senescent HCA2; format: cell-based; details: 0, 2.5, 10 μM, 9 days
Description: as §1
Non-senescent foreskin fibroblasts (HCA2), lung fibroblasts (IMR90), and mouse embryonic fibroblasts (MEF) were treated with varying concentrations (0, 2.5 μM, and 10 μM) of Nutlin-3a for a period of 9 days to assess Nutlin-3a toxicity. Cell counts were taken at the start (NS start) and end of Nutlin-3a treatment. The difference between counts of cells not treated with Nutlin-3a on day 9 (NS 0) and cell counts determined at day zero (NS start) reflects the cell growth over the indicated time period. […]

[4] = system: senescence markers and SASP factors in senescent IMR90 cells; test: qPCR of senescence markers and SASP factors in irradiated senescent IMR90 cells; format: cell-based, human
Description: Primary human fibroblast (IMR90) cells were induced to senesce by applying 10 Gy of irradiation. Seven days after irradiation (Day 0), cells were treated with 10 μM Nutlin-3a or vehicle (DMSO) for nine days (Day 9). The drug or vehicle was refreshed every three days. Drug/vehicle was removed at Day 9 and the cells were cultured for an additional three days (Day 12) in media without drug or DMSO. Cells were then collected, mRNA extracted, and cDNA prepared. Quantitative PCR (qPCR) was then performed to detect expression of various genes. Cells were also collected at Day 12 after drug/vehicle had been removed for three days. The data are presented as an average of three samples. Data were normalized to actin and depicted as a ratio to non-senescent cells.

[5] = system: DNA damage response proteins in senescent IMR90 cells; test: Immunoblot of DNA damage response proteins in irradiated senescent IMR90 cells; format: cell-based, human
Description: Primary human fibroblast (IMR90) cells were induced to senesce by applying 10 Gy of irradiation. Seven days after irradiation (Day 0), cells were treated with 10 μM Nutlin-3a or vehicle (DMSO) for nine days (Day 9). The drug or vehicle was refreshed every three days. Drug/vehicle was removed at Day 9 and the cells were cultured for an additional six days in media without drug or DMSO, changing media every three days. Cells were collected at Day 0 (non-senescent cells), Day 9, Day 12, and Day 15, and protein extracted and processed for immunoblotting (Western blotting). Two samples were processed at each time point; the results are provided for one sample in FIG. 14.

[6] = 10 μM, drug present and after removal
[7] = Day 12, three days after drug removal
[8] = 10 μM, decreased when the drug was removed

With `COc1ccc(C2=N[C@@H](c3ccc(Cl)cc3)[C@@H](c3ccc(Cl)cc3)N2C(=O)N2CCNC(=O)C2)c(OC(C)C)c1` [Nutlin-3a] the Percent survival [1] was “reduced cell survival”, the Percent survival [2] was “reduced cell survival” and the “Proliferation (percent growth)” value [3] was “reduces proliferation”. For the same compound, the “Toxicity (cell number vs starting level)” value [3] was “non-toxic”, the “p21 level relative to non-senescent cells” value ([4]; 10 μM, Day 9, qPCR normalized to actin) was “approximately 90 fold” and the IL-1α level ([4]; 10 μM, Day 9 and Day 12) was “decreased only after Nutlin-3a had been removed”. For the same compound, the CXCL-1 level [4, 6] was “reduced”, the IL-6 level [4, 6] was “reduced” and the IL-8 level [4, 6] was “reduced”. The p16 level [4, 7] was “decrease”, the “p21 level vs DMSO treated cells” value [4, 7] was “comparable” and the p16 level ([4]; in the presence of drug (Day 9)) was “did not change”. For the same compound, the “Phosphorylation of H2AX (γH2AX)” value ([5]; 10 μM, after treatment and after drug removal) was “declining levels of phosphorylation”, the “Phosphorylation of the kinase ATM (pATM S1981)” value ([5]; 10 μM, also after drug removal) was “lower” and the “Level of MDM2” value [5, 8] was “elevated”. The “Level of p21” value [5, 8] was “elevated”, the “Level of p53” value [5, 8] was “elevated” and the “Level of IkBa” value ([5]; after drug is removed) was “approaches the level of IkBa in non-senescent cells”.
